The values that follow are results of earlier work, collected in patent US10882883B2, “Derivatives of amphotericin B” (Sfunga Therapeutics, Inc., priority 2015, dated 2021).

The conditions of data set [1]: Wilcock et al., J Am Chem Soc 135: 8488-91 (2013).
The conditions of data set [2]: Wilcock et al., J Am Chem Soc 135: 8488-91 (2013). This is another data set of the same source.
The test system of a further data set is yeast. The settings on record: in vitro studies; WO 2014/165676.

As for `CC1C=CC=CC=CC=CC=CC=CC=CC(OC2CC(N)C(O)C(C)O2)CC2OC(O)(CC(O)CC(O)C(O)CCC(O)CC(O)CC(=O)OC(C)C(C)C1O)CC(O)C2C(=O)O` (stereo not drawn) [C2′deOAmB], the binding to cholesterol entry in data set [1] is recorded as “no binding to cholesterol”. Moreover, the ergosterol-binding ability result in data set [2] is given as “retains ergosterol-binding ability”. The toxicity to yeast entry in the data set on yeast is listed as “toxic to yeast”.
